Assay results: US5821046A, “RNA oligonucleotides that bind HIV tat protein” (RiboTargets Holdings PLC, priority 1990, dated 1998)
“And” between values parts separate entries of the source, which are not always exact repeats. Equal entries are not always repeated. “Also recorded” adds a separate entry of the source. Where two headings read alike, the source gives them in different places.

Assays:
HIV-1 tat protein [1] = assay: direct filter binding assay of tat to TAR RNA (saturation binding, Scatchard analysis); settings: for affinity of tat binding compared with wild type: gel retardation and filter binding assays (data not shown); for Kd: direct filter binding, HIV-1 TAR from saturation binding/Scatchard plot, mutants estimated from half-maximal binding, read-out: Kd (dissociation constant of tat binding)
Description: The results shown graphically in FIG. 4 are from experiments in which binding reactions (500 ul) contained 40 nMolar^32 P uniformly radiolabelled TAR RNA at a specific activity of 100,000 Ci/mole; 0.5 ug calf thymus DNA; 0.2 ug yeast TRNA; 40 units RNAsin (Promega); 50mm Tris-HCl pH 7.9 and 20 mM KCl. Reaction mixtures were set up on ice and increasing amounts of HIV-1 tat protein were added and the reaction mixtures were filtered through prewashed nitrocellulose filters (Millipore 0.45 uM pore size). The filters were dried and counted by liquid scintillation counting. The fraction of radiolabeled RNA bound was plotted against HIV-1 tat concentration.
Binding was measured by a filter-binding assay as described below under "Method", using monomeric tat protein prepared by CNBr cleavage of a human growth hormone-tat fusion protein expressed in E. coli. Reactions for saturation binding contained labeled TAR RNA [SEQ ID NO: 1] or antisense TAR RNA [SEQ ID NO: 6] at 10 nm and between 0 to 300 nM purified tat protein. Antisense TAR RNA was used as a control, since antisense TAR is unable to form stable complexes with tat in gel-retardation assays (Dingwall et al., 1989).
The stoichiometry of the tat/TAR interaction was determined by varying the TAR RNA concentrations over a wide range, while keeping the tat protein concentration constant near the Kd. For this Scatchard analysis, the tat protein concentration was held constant at 40 nM and the RNA concentration was varied between 7nM and 320 nM. The total amount of labeled RNA was kept constant in the binding reactions, but the specific activity of the RNA was varied. […]
Tat protein was prepared either from beta-galactosidase-tat fusion proteins (6) or from human growth-hormone-tat fusion proteins (85) using an improved method. In brief, inclusion body pellets containing the fusion protein were solubilized in 7M GdHCl, 50 mM Tris-HCl pH8.0, 2 mM EDTA, 2mM DTT and the fusion protein was purified to near homogeneity by ion-exchange chromatography on Q-Sepharose and S-Sepharose (Pharmacia) in buffers containing […], 50 mM Tris-HCl pH8.0, 2mM EDTA, 2mM DTT. The cysteine residues were protected by disulphide-exchange with 20 mM 2-hydroxyethyldisulphide (86), and the protein was cleaved by cyanogen bromide (6). The basic tat protein was then separated from the acidic human growth hormone peptides by ion-exchange chromatography on Q-Sepharose and S-Sepharose in 6M Urea. The protecting groups were then removed from the protein by addition of 10 mM DTT and the protein refolded by stepwise dialysis against 6 m Urea, 5M Urea,3M Urea, 1M Urea and 0M Urea in a buffer containing 50 mM Tris-HCl pH8.0, 100 uM DTT, 10 uM ZnCl2 Tat protein refolded in this manner elutes as a monomer from Superose 12 columns (Pharmacia) and migrates as a single band on polyacrylamide gels. Protein prepared by both methods behaved comparably in binding assays.
A wide variety of parameters affecting the binding of tat protein to TAR RNA were studied and binding conditions were optimized. Binding of tat to TAR has a distinct pH optimum at pH 8.0, but good binding is observed between pH 7.5 and pH 8.5. Tat/TAR complexes are very sensitive to ionic strength. […] Addition of Zn^+2, Cd^+2, Ca^+2, Mg,^+2, Fe^+2 or Fe^+3 ions to the reaction mixtures […]. However, the binding reaction is sensitive to EDTA at greater than 0.1 mM EDTA. Complex formation is also somewhat temperature sensitive. Optimal binding is observed at 0°C. Between 15° C. and 30° C. there is a 30% reduction in complex formation. […]

HIV-1 tat protein [2] = format: binding; settings: 32P-labeled RNA transcript, 0 to 600 ng tat
Description: i) Gel retardation assays (FIG. 6) Method RNA transcripts were prepared by transcription with either T3 or T7 RNA polymerases of TAR regions residues +1 to +57, cloned between the HindIII and EcoRI sites of the Bluescribe M13+expression vector (Stratagene). RNA transcripts corresponding to HIV-1 TAR [SEQ ID NO: 1], SSA [SEQ ID NO: 3], SAA and SAS [SEQ ID NO: 5] were synthesized from clones linearized with EcoRI and transcribed with T3 RNA polymerase. RNA transcripts corresponding to the antisense HIV-1 TAR […], AAS , ASS [SEQ ID NO: 4], and ASA (not shown) sequences were prepared from the same plasmids linearized with HindIII and transcribed using T7 RNA polymerase. All other RNA molecules were synthesized using T3 RNA polymerase following EcoRI cleavage of the plasmid vector. The RNA products each carry 13 nucleotides of vector sequence at their 5' end and four nucleotides at their 3' ends. […] Transcription mixtures contained 1 ug linearized plasmid, 40 mM Tris-HCl pH 8.0, 10 mM MgCl 2, 2 mM Spermidine-HCl, 50 mM NaCl, 100 uM each ribonucleotide triphosphate, 40 uCi (alpha-^32 P) UTP (410 Ci/m mol) and 10 units of RNA polymerase in a final volume of 30 ul and were incubated at 37° C. for 30 minutes. After phenol extraction and precipitation from ethanol the RNA was purified from a 9% polyacrylamide denaturing gel. The specific activity of the RNA product was determined and appropriate amounts were used in binding assays. Binding reaction mixtures (1 5ul) contained 1 ng of uniformly labeled RNA probe, 0.5 ug calf thymus DNA, 0.2 ug yeast TRNA, 40 units RNAsin (Promega), 50 mM Tris-HCl and 20 mM KCl and 0 to 600 ng tat protein, prepared from E. coli beta-galactosidase-tat fusion proteins, as described previously (6). After incubation at either 30° C. or 4° C. for 10-20 minutes, the reaction mixtures were applied to a 6% non-denaturing polyacrylamide gel (Acrylamide: Bis, 40:0.5) in 3.3 mM sodium acetate, 6.7 mM Tris (adjusted to pH 7.9 with HCl). The gel buffer was recirculated during electrophoresis at 35 mA for approximately 2 hours at room temperature. Gels were dried and exposed to X-ray film at -80° C. using intensifying screens.

Row | Substance | affinity of tat binding compared with wild type (HIV-1 tat protein [1]) | complex formation with tat in gel retardation assay (HIV-1 tat protein [2]) | Kd (HIV-1 tat protein [1]) [nM] | also measured
1 | SSA: sense stem, antisense loop sequence (GGGUCUCUCUGGUUAGACCAGAUUUGAGCUCCCAGGCUCUCUGGCUAACUAGGGAACCC; chemistry not given here) | bind tat with wild-type affinities | discrete complex formation | – | –
2 | G28 to C28: TAR point mutation expected to disrupt the top of the TAR stem/loop structure (GGGUCUCUCUGGUUAGACCAGAUUUGACCCUGGGAGCUCUCUGGCUAACUAGGGAACCC; chemistry not given here) | – | failed to bind to tat | > 100 | Kd (HIV-1 tat protein [1]; listed as SEQ ID NO: 10): 100 nM
3 | G to U (loop): TAR RNA in which residues 32-34 are changed to uridine (U) (GGGUCUCUCUGGUUAGACCAGAUUUGAGCCUUUUAGCUCUCUGGCUAACUAGGGAACCC; RNA, backbone not given here) | – | discrete complex formation | 25 | –
4 | SAS: anti-sense upper stem flanked by sense lower stem and loop sequences (GGGUCUCUCUGGUUAGCCAGAGAGCCUGGGAGCUCAAAUCUGGUCUAACUAGGGAACCC; chemistry not given here) | bind tat with significantly reduced affinities | No complexes were formed; also recorded: fail to form complexes | – | –
5 | HIV-1 TAR (UUU): full length HIV-1 TAR RNA of 59 residues prepared by transcription, wild type, UUU bulge (GGGUCUCUCUGGUUAGACCAGAUUUGAGCCUGGGAGCUCUCUGGCUAACUAGGGAACCC; unmodified RNA) [reference compound] | – | discrete complex formation | 12 | stoichiometry v, moles of RNA bound per mole of protein (HIV-1 tat protein [1]; Scatchard analysis, 40 nM tat, RNA 7-320 nM): approximately one; Kd (HIV-1 tat protein [1]; listed as HIV-1 TAR RNA): 12 nM; Kd (HIV-1 tat protein [1]; listed as TAR RNA): 12 nM; Kd (HIV-1 tat protein [1]; listed as TAR): 11.8 nM and 12 nM
6 | ASS: anti-sense lower stem, sense upper stem and loop sequences (GGGUUCCCUAGUUAGACCAGAUUUGAGCCUGGGAGCUCUCUGGCUAACCAGAGAGACCC; chemistry not given here) | bind tat with wild-type affinities | discrete complex formation | – | –
7 | delta U (bulge): TAR RNA in which residues 23-25 are deleted (GGGUCUCUCUGGUUAGACCAGAGAGCCUGGGAGCUCUCUGGCUAACUAGGGAACCC; RNA, backbone not given here) | – | – | > 70 | complex formation with tat in gel retardation assay (HIV-1 tat protein [2]; listed as SEQ ID NO: 8): abolished tat binding; complex formation with tat in gel retardation assay (HIV-1 tat protein [2]; listed as delta U3 (bulge)): No complexes were formed
